In patent US20240132431A1, “METHOD FOR ALKYLATING ACIDIC FUNCTIONAL GROUP” (Chugai Seiyaku Kabushiki Kaisha, priority 2021, published 2024):

Target: T1, Bcl-2 protein (Recombinant Human Bcl-2 Protein) (Homo sapiens, UniProt P10415)
T1 construct: purchased Novus NBP2-34889
Test: Binding evaluation of mixture library compounds to Bcl-2 using AS-MS (affinity selection mass spectrometry)
Settings: AS-MS, mixture of 1200 compounds, Bcl-2, ASMS Ratio(%)=(A−C)/B×100; for ASMS ratio (%) n = 1: replicate n = 1; for ASMS ratio (%) n = 2: replicate n = 2
Outline: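 Readout is ASMS Ratio (%), (A−C)/B×100, from reversed-phase LC/MS of SEC-passed extracts, with protein-free unfiltered standard (B) and protein-free SEC blank (C). Recombinant human Bcl-2 at 20 μM final met ~1200 pooled compounds at […] each for 1 h, 23° C., dark, in Tris-HCl pH 7.4 buffer.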

T1 sequence (P10415 whole entry): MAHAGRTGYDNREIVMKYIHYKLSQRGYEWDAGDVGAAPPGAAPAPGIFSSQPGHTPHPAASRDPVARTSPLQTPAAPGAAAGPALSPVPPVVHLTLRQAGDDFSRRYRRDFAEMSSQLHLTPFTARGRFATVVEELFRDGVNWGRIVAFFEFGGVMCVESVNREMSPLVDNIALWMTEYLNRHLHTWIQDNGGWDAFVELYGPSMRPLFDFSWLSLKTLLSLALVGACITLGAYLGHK

| Compound | ASMS ratio (%) n = 1 [%] | ASMS ratio (%) n = 2 [%] |
| --- | --- | --- |
| CCOc1cncc(C#Cc2cc(C(=O)N3CCN(c4ccc(C(=O)NCC(F)(F)F)nn4)CC3)cc(C(F)(F)F)c2)c1 [B1K020-01, 6-[4-[3-[2-(5-Ethoxypyridin-3-yl)ethynyl]-5-(trifluoromethyl)benzoyl]piperazin-1-yl]-N-(2,2,2-trifluoroethyl)pyridazine-3-carboxamide] | 2.9 | −3.8 |
| CCOc1cccc(-c2cnn(-c3cc(C(=O)N4CCN(c5ccc(C(=O)NCC(F)(F)F)nn5)CC4)cc(C(F)(F)F)c3)c2)c1 [B1K021-01, 6-[4-[3-[4-(3-Ethoxyphenyl)pyrazol-1-yl]-5-(trifluoromethyl)benzoyl]piperazin-1-yl]-N-(2,2,2-trifluoroethyl)pyridazine-3-carboxamide] | −0.5 | −1.9 |
| CCOc1cncc(-c2cnn(-c3cc(C(=O)N4CCN(c5ccc(C(=O)NCC(F)(F)F)nn5)CC4)cc(C(F)(F)F)c3)c2)c1 [B1K022-01, 6-[4-[3-[4-(5-Ethoxypyridin-3-yl)pyrazol-1-yl]-5-(trifluoromethyl)benzoyl]piperazin-1-yl]-N-(2,2,2-trifluoroethyl)pyridazine-3-carboxamide] | 1.4 | 0.1 |
| CCOc1cccc(-c2csc(C(=O)N3CCN(c4ccc(C(=O)NCC(F)(F)F)cc4)CC3)c2)c1 [B1K023-01, 4-[4-[4-(3-Ethoxyphenyl)thiophene-2-carbonyl]piperazin-1-yl]-N-(2,2,2-trifluoroethyl)benzamide] | 4.3 | 1.3 |
| CCOc1cncc(-c2csc(C(=O)N3CCN(c4ccc(C(=O)NCC(F)(F)F)cc4)CC3)c2)c1 [B1K024-01, 4-[4-[4-(5-Ethoxypyridin-3-yl)thiophene-2-carbonyl]piperazin-1-yl]-N-(2,2,2-trifluoroethyl)benzamide] | 0.0 | 0.0 |
| CCOc1cccc(-c2ccc(C(=O)N3CCN(c4ccc(C(=O)NCC(F)(F)F)cc4)CC3)cc2C)c1 [B1K025-01, 4-[4-[4-(3-Ethoxyphenyl)-3-methylbenzoyl]piperazin-1-yl]-N-(2,2,2-trifluoroethyl)benzamide] | 0.3 | −0.8 |
| CCOc1cncc(-c2ccc(C(=O)N3CCN(c4ccc(C(=O)NCC(F)(F)F)cc4)CC3)cc2C)c1 [B1K026-01, 4-[4-[4-(5-Ethoxypyridin-3-yl)-3-methylbenzoyl]piperazin-1-yl]-N-(2,2,2-trifluoroethyl)benzamide] | 4.2 | 0.2 |
| CCOc1cccc(-c2ccc(C(=O)N3CCN(c4ccc(C(=O)NCC(F)(F)F)cc4)CC3)cc2F)c1 [B1K027-01, 4-[4-[4-(3-Ethoxyphenyl)-3-fluorobenzoyl]piperazin-1-yl]-N-(2,2,2-trifluoroethyl)benzamide] | −0.8 | −3.6 |
| CCOc1cncc(-c2ccc(C(=O)N3CCN(c4ccc(C(=O)NCC(F)(F)F)cc4)CC3)cc2F)c1 [B1K028-01, 4-[4-[4-(5-Ethoxypyridin-3-yl)-3-fluorobenzoyl]piperazin-1-yl]-N-(2,2,2-trifluoroethyl)benzamide] | 0.0 | 0.0 |
| CCOc1cncc(C#Cc2ccccc2C(=O)N2CCN(c3ccc(C(=O)NCC(F)(F)F)cc3)CC2)c1 [B1K030-01, 4-[4-[2-[2-(5-Ethoxypyridin-3-yl)ethynyl]benzoyl]piperazin-1-yl]-N-(2,2,2-trifluoroethyl)benzamide] | 0.0 | 0.9 |
| CCOc1cccc(C#Cc2cncc(C(=O)N3CCN(c4ccc(C(=O)NCC(F)(F)F)cc4)CC3)c2)c1 [B1K031-01, 4-[4-[5-[2-(3-Ethoxyphenyl)ethynyl]pyridine-3-carbonyl]piperazin-1-yl]-N-(2,2,2-trifluoroethyl)benzamide] | 0.0 | 0.0 |
| CCOc1cccc(-c2ccccc2CCC(=O)N2CCN(c3ccc(C(=O)NCC(F)(F)F)cc3)CC2)c1 [B1K033-01, 4-[4-[3-[2-(3-Ethoxyphenyl)phenyl]propanoyl]piperazin-1-yl]-N-(2,2,2-trifluoroethyl)benzamide] | 2.3 | −0.6 |
| CCOc1cncc(-c2ccccc2CCC(=O)N2CCN(c3ccc(C(=O)NCC(F)(F)F)cc3)CC2)c1 [B1K034-01, 4-[4-[3-[2-(5-Ethoxypyridin-3-yl)phenyl]propanoyl]piperazin-1-yl]-N-(2,2,2-trifluoroethyl)benzamide] | −0.3 | 0.0 |
| CCOc1cccc(-c2ccc(C(=O)N3CCN(c4ccc(C(=O)NCC(F)(F)F)cc4)CC3)c3ccccc23)c1 [B1K035-01, 4-[4-[4-(3-Ethoxyphenyl)naphthalene-1-carbonyl]piperazin-1-yl]-N-(2,2,2-trifluoroethyl)benzamide] | 4.8 | 4.5 |
| CCOc1cncc(-c2ccc(C(=O)N3CCN(c4ccc(C(=O)NCC(F)(F)F)cc4)CC3)c3ccccc23)c1 [B1K036-01, 4-[4-[4-(5-Ethoxypyridin-3-yl)naphthalene-1-carbonyl]piperazin-1-yl]-N-(2,2,2-trifluoroethyl)benzamide] | 1.1 | −0.4 |
| CCOc1cccc(-c2cc(C(=O)N3CCN(c4ccc(C(=O)NCC(F)(F)F)cc4)CC3)cc(C(C)(C)C)c2)c1 [B1K037-01, 4-[4-[3-tert-Butyl-5-(3-ethoxyphenyl)benzoyl]piperazin-1-yl]-N-(2,2,2-trifluoroethyl)benzamide] | 0.8 | 1.9 |
| CCOc1cncc(-c2cc(C(=O)N3CCN(c4ccc(C(=O)NCC(F)(F)F)cc4)CC3)cc(C(C)(C)C)c2)c1 [B1K038-01, 4-[4-[3-tert-Butyl-5-(5-ethoxypyridin-3-yl)benzoyl]piperazin-1-yl]-N-(2,2,2-trifluoroethyl)benzamide] | 0.6 | −1.8 |
| CCOc1cccc(C#Cc2cc(C(=O)N3CCN(c4ccc(C(=O)NCC(F)(F)F)cc4)CC3)cc(C(F)(F)F)c2)c1 [B1K041-01, 4-[4-[3-[2-(3-Ethoxyphenyl)ethynyl]-5-(trifluoromethyl)benzoyl]piperazin-1-yl]-N-(2,2,2-trifluoroethyl)benzamide] | 0.0 | 0.0 |
| CCOc1cncc(C#Cc2cc(C(=O)N3CCN(c4ccc(C(=O)NCC(F)(F)F)cc4)CC3)cc(C(F)(F)F)c2)c1 [B1K042-01, 4-[4-[3-[2-(5-Ethoxypyridin-3-yl)ethynyl]-5-(trifluoromethyl)benzoyl]piperazin-1-yl]-N-(2,2,2-trifluoroethyl)benzamide] | 5.0 | −0.1 |
| CCOc1cccc(-c2cnn(-c3cc(C(=O)N4CCN(c5ccc(C(=O)NCC(F)(F)F)cc5)CC4)cc(C(F)(F)F)c3)c2)c1 [B1K043-01, 4-[4-[3-[4-(3-Ethoxyphenyl)pyrazol-1-yl]-5-(trifluoromethyl)benzoyl]piperazin-1-yl]-N-(2,2,2-trifluoroethyl)benzamide] | 3.8 | 1.9 |
| CCOc1cncc(-c2cnn(-c3cc(C(=O)N4CCN(c5ccc(C(=O)NCC(F)(F)F)cc5)CC4)cc(C(F)(F)F)c3)c2)c1 [B1K044-01, 4-[4-[3-[4-(5-Ethoxypyridin-3-yl)pyrazol-1-yl]-5-(trifluoromethyl)benzoyl]piperazin-1-yl]-N-(2,2,2-trifluoroethyl)benzamide] | 2.6 | 1.0 |
| CCOc1cccc(-c2ccccc2CN2CCN(c3ccc(C(=O)NCC(F)(F)F)cc3)CC2)c1 [B1K045-01, 4-[4-[[2-(3-Ethoxyphenyl)phenyl]methyl]piperazin-1-yl]-N-(2,2,2-trifluoroethyl)benzamide] | 1.5 | −0.1 |
| CCOc1cncc(-c2ccccc2CN2CCN(c3ccc(C(=O)NCC(F)(F)F)cc3)CC2)c1 [B1K046-01, 4-[4-[[2-(5-Ethoxypyridin-3-yl)phenyl]methyl]piperazin-1-yl]-N-(2,2,2-trifluoroethyl)benzamide] | −0.1 | 0.5 |
| CCOc1cccc(-c2ccc(CN3CCN(c4ccc(C(=O)NCC(F)(F)F)cc4)CC3)cc2C)c1 [B1K047-01] | 3.3 | 0.5 |
| CCOc1cncc(-c2ccc(CN3CCN(c4ccc(C(=O)NCC(F)(F)F)cc4)CC3)cc2C)c1 [B1K048-01, 4-[4-[[4-(5-Ethoxypyridin-3-yl)-3-methylphenyl]methyl]piperazin-1-yl]-N-(2,2,2-trifluoroethyl)benzamide] | 0.1 | 1.2 |
| CCOc1cccc(-c2ccc(CN3CCN(c4ccc(C(=O)NCC(F)(F)F)cc4)CC3)c(CC)c2)c1 [B1K049-01, 4-[4-[[4-(3-Ethoxyphenyl)-2-ethylphenyl]methyl]piperazin-1-yl]-N-(2,2,2-trifluoroethyl)benzamide] | −3.3 | 1.5 |
| CCOc1cncc(-c2ccc(CN3CCN(c4ccc(C(=O)NCC(F)(F)F)cc4)CC3)c(CC)c2)c1 [B1K050-01] | 0.0 | 0.0 |
| CCOc1cccc(-c2ccc(CN3CCN(c4ccc(C(=O)NCC(F)(F)F)cc4)CC3)cc2F)c1 [B1K051-01, 4-[4-[[4-(3-Ethoxyphenyl)-3-fluorophenyl]methyl]piperazin-1-yl]-N-(2,2,2-trifluoroethyl)benzamide] | 2.8 | 2.0 |
